From US20140357512A1, “HISTONE DEACETYLASE (HDAC) BIOMARKERS IN MULTIPLE MYELOMA” (priority 2013, published 2014)

System: human myeloma cell line MM.1S
Test: SILAC acetylated-lysine peptide profiling, HDAC inhibitor vs DMSO (light/heavy ratio)
Type: cell-based
Description: An embodiment of the invention comprises utilizing the SILAC method in order to quantitate changes in protein expression between two or more populations of cells. The SILAC method is a technique based on mass spectrometry that detects differences in protein abundance among samples using non-radioactive isotopic labeling. The SILAC method is known in the art, and described in detail in Ong et al., “Stable Isotope Labeling by Amino Acids in Cell Culture, SILAC, as a Simple and Accurate Approach to Expression Proteomics”, Molecular & Cellular Proteomics, vol. 1, pp. 376-386 (2002), which is incorporated herein by reference in its entirety.
Briefly, the SILAC method involves growing two populations of cells in cell culture. The first population of cells is grown in growth media containing normal amino acids (“normal media”). The second population of cells is grown in media lacking a standard essential amino acid (such as lysine), but is then supplemented with a non-radioactive, isotopically labeled form of that essential amino acid (such as lysine labeled with ^13C atoms, rather than normal ^12C atoms), which is called “heavy media”. When the two populations of cells are each growing in the medium, they incorporate the amino acids into all of their proteins. The growth of cells maintained in the heavy media is no different from that in normal media. All peptides containing the heavy amino acids are heavier than their normal counterparts. The cells from each of the two populations of cells are lysed. The lysates from each of the two cell populations are then combined. The combined cell lysates are then analyzed by mass spectrometry. Pairs of chemically identical peptides of different stable isotope composition can be differentiated in a mass spectrometer due to their difference in mass. The ratio of peak intensities in the mass spectrum for such peptide pairs reflects the abundance ratio for the two proteins.
This example describes SILAC studies that were performed to compare the effects of three different HDAC inhibitors (Compound A, Compound B, and tubastatin A) to a control on a human multiple myeloma cell line. The HDAC inhibitors were also compared amongst themselves to determine differences in their effects.
A human myeloma cell line MM.1S was grown using either ^12C (light) or ^13C (heavy) lysine containing culture medium. The “heavy” cells were treated with DMSO as the control, and the “light” cells were treated with a single HDAC inhibitor at 37° C. for 6 hours. The heavy and light cells were lysed, and the lysates were mixed in 1:1 ratio and digested with the protease trypsin. The acetylated lysine containing peptides (due to the action of the HDAC inhibitor) in the digested peptide pool were captured by a non-specific anti-acetylated lysine antibody cocktail (the antibodies identify both light and heavy acetylated peptides), and subjected to mass spectrometry analysis in order to identify thousands of individual peptides.
Thousands of peptides were identified in pairs (^12C and ^13C) due to their known mass differences. The amino acid sequence and quantitative ratio (Light/Heavy) of a given peptide in two differentially treated cell lysates were then determined and annotated with their possible protein (gene) sources.
As stated above, three HDAC inhibitors (Compound A, Compound B, and Tubastatin A) were used. Thus, the SILAC method was performed three times, with a different HDAC inhibitor compared to a control each time. Accordingly, there are three pairs of quantitative data in the table below, i.e., Compound A:DMSO, Compound B:DMSO, and Tubastatin A:DMSO. A cut-off of 1.30 fold of change (increase or decrease) was then used to determine “changed” or “+” in the table, and any peptides with a fold of change less than 1.3 fold were determined to be “unchanged” or “0” in the table. Those peptides that were not identified were marked as “NA” in the table. […]

O=C(CCCCCCNC(=O)c1cnc(N(c2ccccc2)c2ccccc2)nc1)NO [Compound A, 2-(diphenylamino)-N-(7-(hydroxyamino)-7-oxoheptyl)pyrimidine-5-carboxamide]
L/H ratio of acetylated peptide SELK(ac)HAK (SEQ ID NO: 696, Isoform Long of Delta-1-pyrroline-5-carboxylate synthase [68], ALDH18A1): 0.66 log 2 | L/H ratio of acetylated peptide SCGLNPK(ac)LEK (SEQ ID NO: 697, Isoform 5 of Transcriptional regulator ATRX [468], ATRX): 0.66 log 2 | L/H ratio of acetylated peptide EVK(ac)VLLDQLR (SEQ ID NO: 698, Isoform 1 of Adipocyte plasma membrane-associated protein [250], C20orf3): 0.67 log 2 | L/H ratio of acetylated peptide KAVTK(ac)VQK (SEQ ID NO: 699, Histone H2B type 2-F [21], HIST2H2BF): 0.67 log 2 | L/H ratio of acetylated peptide ILQK(ac)QGFK (SEQ ID NO: 700, Dihydrolipoyl dehydrogenase mitochondrial [267], DLD): 0.67 log 2 | L/H ratio of acetylated peptide NK(ac)FGAPQK (SEQ ID NO: 701, Trifunctional enzyme subunit alpha mitochondrial [353], HADHA): 0.68 log 2 | L/H ratio of acetylated peptide VTAVHK(ac)ANIMK (SEQ ID NO: 702, Isocitrate dehydrogenase [NAD] subunit gamma mitochondrial [221], IDH3G): 0.68 log 2 | L/H ratio of acetylated peptide ACPEK(ac)HFAFK (SEQ ID NO: 703, Protein FAM3C [67], FAM3C): 0.68 log 2 | L/H ratio of acetylated peptide KPTLDK(ac)PSPETFVK (SEQ ID NO: 704, Estradiol 17-beta-dehydrogenase 12 [249], HSD17B12): 0.68 log 2 | L/H ratio of acetylated peptide QLAQK(ac)YNCDK (SEQ ID NO: 705, Ubiquitin-60S ribosomal protein L40 [88], UBA52): 0.68 log 2 | L/H ratio of acetylated peptide […](ac)EDVK (SEQ ID NO: 706, Isoform 1 of ATP synthase subunit d mitochondrial [95], ATP5H): 0.68 log 2 | L/H ratio of acetylated peptide […](ac)TLSK (SEQ ID NO: 707, Isoform 2 of PDZ domain-containing protein 2 [1726], PDZD2): 0.69 log 2 | L/H ratio of acetylated peptide ADK(ac)LAEEHSS (SEQ ID NO: 708, ATP synthase subunit beta mitochondrial [522], ATP5B): 0.70 log 2 | L/H ratio of acetylated peptide DFGSFDK(ac)FK (SEQ ID NO: 709, Superoxide dismutase [Mn] mitochondrial [130], SOD2): 0.70 log 2 | L/H ratio of acetylated peptide KIDK(ac)YTEVLK (SEQ ID NO: 710, 60S ribosomal protein L13a [191], SNORD32A, RPL13A, SNORD33, SNORD34): 0.70 log 2 | L/H ratio of acetylated peptide CSK(ac)LPSSTK(ac)SGWPR (SEQ ID NO: 711, cDNA FLJ75110 highly similar to Homo sapiens PHD finger protein 15 (PHF15) mRNA 3[2:38], PHF15): 0.70 log 2 | L/H ratio of acetylated peptide KAINK(ac)AQK (SEQ ID NO: 712, Histone H2B type 1-M [21], HIST1H2BM): 0.70 log 2 | L/H ratio of acetylated peptide EFPEK(ac)QELHR (SEQ ID NO: 713, Protein zer-1 homolog [584], ZER1): 0.70 log 2 | L/H ratio of acetylated peptide TDLEK(ac)[…] (SEQ ID NO: 714, Putative annexin A2-like protein [157], ANXA2P2): 0.71 log 2 | L/H ratio of acetylated peptide […](ac)ASMK (SEQ ID NO: 715, Putative annexin A2-like protein [115], ANXA2P2): 0.72 log 2 | L/H ratio of acetylated peptide LTCYLCK(ac)QK (SEQ ID NO: 716, Isoform 1 of Bromodomain-containing protein 1 [33]1, BRD1): 0.72 log 2 | L/H ratio of acetylated peptide AINK(ac)AQK(ac)K (SEQ ID NO: 717, Histone H2B type 1-M [21:24], HIST1H2BM): 0.72 log 2 | L/H ratio of acetylated peptide KGIEK(ac)NLGIGK (SEQ ID NO: 718, Malate dehydrogenase mitochondrial [301], MDH2): 0.72 log 2 | L/H ratio of acetylated peptide DNGK(ac)[…] (SEQ ID NO: 719, ATP synthase subunit alpha mitochondrial [305], ATP5A1): 0.72 log 2 | L/H ratio of acetylated peptide QLYNIYAK(ac)HTK (SEQ ID NO: 720, Putative ATP-dependent Clp protease proteolytic subunit mitochondrial [211], CLPP): 0.72 log 2 | L/H ratio of acetylated peptide GKGDK(ac)AQIEK (SEQ ID NO: 721, 60 kDa heat shock protein mitochondrial [364], HSPD1): 0.73 log 2 | L/H ratio of acetylated peptide K(ac)FLVHNVK (SEQ ID NO: 722, 60S ribosomal protein L32 [76], RPL32): 0.73 log 2 | L/H ratio of acetylated peptide GLIK(ac)LVSK (SEQ ID NO: 723, 40S ribosomal protein S25 [98], RPS25): 0.73 log 2 | L/H ratio of acetylated peptide IGFAEK(ac)VAAK (SEQ ID NO: 724, Isoform Mitochondrial of Fumarate hydratase mitochondrial [292], FH): 0.73 log 2 | L/H ratio of acetylated peptide (ac)AEK(ac)FDCHYCR (SEQ ID NO: 725, four and a half LIM domains protein 1 isoform 5 [20], FHL1): 0.73 log 2 | L/H ratio of acetylated peptide […](ac)VIPK (SEQ ID NO: 726, Endoplasmic reticulum resident protein 29 [48], ERP29): 0.73 log 2 | L/H ratio of acetylated peptide […](ac)SVAR (SEQ ID NO: 727, 60S ribosomal protein L7a [245], RPL7A, SNORD24): 0.73 log 2 | L/H ratio of acetylated peptide TITMK(ac)QLLR (SEQ ID NO: 728, Branched-chain-amino-acid aminotransferase [281], BCAT2): 0.73 log 2 | L/H ratio of acetylated peptide SK(ac)FVLVK (SEQ ID NO: 729, Endoplasmic reticulum resident protein 29 [54], ERP29): 0.74 log 2 | L/H ratio of acetylated peptide LVEDTK(ac)HRPK (SEQ ID NO: 730, 39S ribosomal protein L9 mitochondrial [87], MRPL9): 0.74 log 2
